Literature values in patent US11122832B2, “Methods and compositions to improve weight loss and cardiometabolic health beyond diet and excercise” (Nature's Sunshine Products, Inc., priority 2016, dated 2021).
Where two headings read alike, the source gives them in different places.

Key:
[1] = system: plasma concentration of NOx; settings: 6 g, over 120 minutes, healthy individuals with normal plasma ADMA
[2] = not given; remark: listed apart in the source

For `N=C(N)NCCC[C@H](N)C(=O)O` [L-arginine], the “plasma concentration of NOx after acute supplementation” value [1] is listed as “does not increase”.

For `C[C@H]1CNCCc2ccc(Cl)cc21` [Lorcaserin], the “Responders (5% weight loss)” value (Evaluation 12 weeks, BID 10 mg, placebo 12%) is listed as 36%, the “≥10% weight loss responders” value (Period 56 weeks, placebo 9%) is listed as 22% and the “≥5% weight loss responders” value (Period 56 weeks, placebo 23%) is listed as 47%.

For `O=NO` [NO2, nitrite], the “filtered amount reabsorbed in the renal tubules” value ([2]; estimated) is given as 96%.

For `O=[N+]([O-])O` [NO3, nitrate], the “bioavailability of dietary NO3” value ([2]; dietary (oral)) is listed as 100%, the “clearance from blood to urine” value ([2]; in adults) is listed as “approximately 20 mL/min” and the “time to peak plasma concentration” value ([2]; orally consumed) is listed as “approximately 1 hour”. For the same molecule, the “half-life of plasma NO3” value ([2]; plasma) was 5 to 8 h.

In the case of `[N]=O` [NO, Nitric oxide], the “half-life of NO once produced through NOS” value ([2]; in vivo) is given as “approximately 1 second”.

For `CCCCCCCCCCC[C@@H](C[C@@H]1OC(=O)[C@H]1CCCCCC)OC(=O)[C@H](CC(C)C)NC=O` [Orlistat], the “≥5% weight loss responders” value (Period 24 weeks) is listed as 42%, the “≥10% weight loss responders” value (Period 24 weeks) is listed as 15% and the “≥5% weight loss responders” value (Period 24 weeks, listed as orlistat) is listed as 42%.
